Patent publication US5929038A, “Pharmaceutical preparations which inhibit hepatitis B virus (HBV) replication” (Choongwae Pharmaceutical Co., Ltd., priority 1992, dated 1999)
Several values for one entry are separate records, joined by “and”; a condition that tells them apart may be missing. Equal entries are not always repeated.

Legend:
[1] = tested on: central and peripheral nervous system; details: in vivo; cited from earlier work
[2] = tested on: HBV DNA replication; experiment: Effects on HBV DNA replication in 2.2.15 cells in culture (intracellular HBV DNA and HBV virion DNA); type: cell-based, hepatitis B virus; details: ddC 25 μM
[3] = tested on: hematopoietic cells; details: cited from earlier work
[4] = 24 hrs following the 9th day of treatment

Q: For `Nc1ccn([C@H]2CC[C@@H](CO)O2)c(=O)n1` [ddC, 2',3'-dideoxycytidine, reference compound], which “toxicity on the central and peripheral nervous system” value [1] is on record?
A: high toxicity on the central and peripheral nervous system

Q: And the “Intracellular HBV DNA, Mono.” value [2, 4]?
A: 1.1 pg/μg cell DNA and 1.2 pg/μg cell DNA and 0.8 pg/μg cell DNA and 1.0 pg/μg cell DNA

Q: And the “Intracellular HBV DNA, RI (Replicating Intermediate)” value [2, 4]?
A: 1 pg/μg cell DNA

Q: What about the “HBV Virion DNA, Day 0” value ([2]; Day 0, before first dose) of the same compound?
A: 65 pg/ml culture medium and 70 pg/ml culture medium and 78 pg/ml culture medium and 60 pg/ml culture medium

Q: What about the “HBV Virion DNA, Day 3” value ([2]; Day 3) of the same compound?
A: 41 pg/ml culture medium and 33 pg/ml culture medium and 31 pg/ml culture medium and 40 pg/ml culture medium

Q: What about the “HBV Virion DNA, Day 6” value ([2]; Day 6) of the same compound?
A: 15 pg/ml culture medium and 13 pg/ml culture medium and 10 pg/ml culture medium and 12 pg/ml culture medium

Q: And the “toxicity on hematopoietic cells” value [3]?
A: toxicity on hematopoietic cells
